Reference: patent US20260327204A1, “DEGRADERS OF CYCLIN-DEPENDENT KINASE 12/13, COMPOSITIONS, AND USES THEREOF” (ZHEJIANG UNIVERSITY, priority 2023, published 2026)
Read-outs that look alike come from different tables or passages of the source.

Key:
CDK12 = CDK12 (Homo sapiens, UniProt Q9NYV4); test: Western blot degradation of CDK12 (Example 3); format: cell-based; parameters: degradation of CDK12/13 protein in leukemia cells KASUMI-1, MV4-11, and Jurkat; endogenous in cells
CDK13 = CDK13 (Homo sapiens, UniProt Q14004); test: Western blot degradation of CDK13 (Example 3); format: cell-based; parameters: degradation of CDK12/13 protein in leukemia cells KASUMI-1, MV4-11, and Jurkat; endogenous in cells
Sequence of CDK13 (Q14004 whole entry): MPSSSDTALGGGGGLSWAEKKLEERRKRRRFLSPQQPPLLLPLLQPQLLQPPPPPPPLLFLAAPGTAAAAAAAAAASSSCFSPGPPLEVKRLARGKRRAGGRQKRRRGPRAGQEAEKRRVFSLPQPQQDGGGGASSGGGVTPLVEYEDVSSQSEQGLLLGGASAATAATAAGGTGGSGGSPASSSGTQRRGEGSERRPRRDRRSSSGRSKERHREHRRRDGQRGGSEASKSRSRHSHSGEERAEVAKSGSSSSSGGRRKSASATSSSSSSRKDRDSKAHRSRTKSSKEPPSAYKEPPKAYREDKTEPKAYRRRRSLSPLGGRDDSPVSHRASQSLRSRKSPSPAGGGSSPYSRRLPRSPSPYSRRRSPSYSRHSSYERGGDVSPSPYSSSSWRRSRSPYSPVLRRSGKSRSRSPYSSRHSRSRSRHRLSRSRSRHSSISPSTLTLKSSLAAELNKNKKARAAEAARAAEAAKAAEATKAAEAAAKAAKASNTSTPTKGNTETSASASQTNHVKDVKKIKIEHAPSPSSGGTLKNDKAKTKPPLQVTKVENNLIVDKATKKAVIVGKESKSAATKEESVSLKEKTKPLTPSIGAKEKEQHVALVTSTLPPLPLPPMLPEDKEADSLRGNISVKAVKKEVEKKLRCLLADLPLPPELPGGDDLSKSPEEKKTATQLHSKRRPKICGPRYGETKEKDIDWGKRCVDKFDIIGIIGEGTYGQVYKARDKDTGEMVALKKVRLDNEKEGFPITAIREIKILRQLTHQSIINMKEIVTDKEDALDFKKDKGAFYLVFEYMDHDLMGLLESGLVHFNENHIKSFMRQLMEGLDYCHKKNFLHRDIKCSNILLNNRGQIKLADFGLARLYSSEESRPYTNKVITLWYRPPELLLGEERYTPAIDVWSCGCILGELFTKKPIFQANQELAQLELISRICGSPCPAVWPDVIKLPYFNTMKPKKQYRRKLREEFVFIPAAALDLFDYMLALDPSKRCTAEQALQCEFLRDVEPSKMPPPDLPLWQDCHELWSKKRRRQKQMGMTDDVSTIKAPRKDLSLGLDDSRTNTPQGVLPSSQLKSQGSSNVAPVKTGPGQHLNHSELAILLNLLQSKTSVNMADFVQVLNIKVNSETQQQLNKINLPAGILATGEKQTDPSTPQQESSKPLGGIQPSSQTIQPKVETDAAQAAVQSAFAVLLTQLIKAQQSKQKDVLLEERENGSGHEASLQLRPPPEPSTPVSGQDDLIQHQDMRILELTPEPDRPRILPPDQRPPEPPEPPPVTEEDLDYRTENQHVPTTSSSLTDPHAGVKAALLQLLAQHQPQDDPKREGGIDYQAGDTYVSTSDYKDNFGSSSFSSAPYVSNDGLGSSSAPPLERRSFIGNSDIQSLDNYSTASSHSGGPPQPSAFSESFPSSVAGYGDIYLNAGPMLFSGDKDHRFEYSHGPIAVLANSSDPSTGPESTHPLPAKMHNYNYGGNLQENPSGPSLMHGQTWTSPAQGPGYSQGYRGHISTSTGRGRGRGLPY
Sequence of CDK13 (O75909 whole entry partner): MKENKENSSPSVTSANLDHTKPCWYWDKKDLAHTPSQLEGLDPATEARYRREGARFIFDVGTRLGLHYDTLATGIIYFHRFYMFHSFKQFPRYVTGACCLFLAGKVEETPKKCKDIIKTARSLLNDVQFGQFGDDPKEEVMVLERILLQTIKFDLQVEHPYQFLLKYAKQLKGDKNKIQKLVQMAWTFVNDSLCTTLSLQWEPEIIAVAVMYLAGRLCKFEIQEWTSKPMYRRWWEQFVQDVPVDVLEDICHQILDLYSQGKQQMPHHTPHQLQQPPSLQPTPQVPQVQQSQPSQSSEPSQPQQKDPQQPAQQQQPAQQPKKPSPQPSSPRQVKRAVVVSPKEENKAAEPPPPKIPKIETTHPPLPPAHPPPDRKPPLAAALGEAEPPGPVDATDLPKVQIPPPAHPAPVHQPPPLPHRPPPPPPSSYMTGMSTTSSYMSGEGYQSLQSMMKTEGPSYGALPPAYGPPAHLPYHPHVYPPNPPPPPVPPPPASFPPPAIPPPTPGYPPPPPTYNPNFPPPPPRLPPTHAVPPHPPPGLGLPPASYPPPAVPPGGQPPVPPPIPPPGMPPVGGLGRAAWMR

[1] = DC50 classes; cell line not given; read-out: CDK12 degradation Activity
[2] = DC50 classes; cell line not given; read-out: CDK13 degradation Activity

Sequence of CDK12 (Q9NYV4 whole entry): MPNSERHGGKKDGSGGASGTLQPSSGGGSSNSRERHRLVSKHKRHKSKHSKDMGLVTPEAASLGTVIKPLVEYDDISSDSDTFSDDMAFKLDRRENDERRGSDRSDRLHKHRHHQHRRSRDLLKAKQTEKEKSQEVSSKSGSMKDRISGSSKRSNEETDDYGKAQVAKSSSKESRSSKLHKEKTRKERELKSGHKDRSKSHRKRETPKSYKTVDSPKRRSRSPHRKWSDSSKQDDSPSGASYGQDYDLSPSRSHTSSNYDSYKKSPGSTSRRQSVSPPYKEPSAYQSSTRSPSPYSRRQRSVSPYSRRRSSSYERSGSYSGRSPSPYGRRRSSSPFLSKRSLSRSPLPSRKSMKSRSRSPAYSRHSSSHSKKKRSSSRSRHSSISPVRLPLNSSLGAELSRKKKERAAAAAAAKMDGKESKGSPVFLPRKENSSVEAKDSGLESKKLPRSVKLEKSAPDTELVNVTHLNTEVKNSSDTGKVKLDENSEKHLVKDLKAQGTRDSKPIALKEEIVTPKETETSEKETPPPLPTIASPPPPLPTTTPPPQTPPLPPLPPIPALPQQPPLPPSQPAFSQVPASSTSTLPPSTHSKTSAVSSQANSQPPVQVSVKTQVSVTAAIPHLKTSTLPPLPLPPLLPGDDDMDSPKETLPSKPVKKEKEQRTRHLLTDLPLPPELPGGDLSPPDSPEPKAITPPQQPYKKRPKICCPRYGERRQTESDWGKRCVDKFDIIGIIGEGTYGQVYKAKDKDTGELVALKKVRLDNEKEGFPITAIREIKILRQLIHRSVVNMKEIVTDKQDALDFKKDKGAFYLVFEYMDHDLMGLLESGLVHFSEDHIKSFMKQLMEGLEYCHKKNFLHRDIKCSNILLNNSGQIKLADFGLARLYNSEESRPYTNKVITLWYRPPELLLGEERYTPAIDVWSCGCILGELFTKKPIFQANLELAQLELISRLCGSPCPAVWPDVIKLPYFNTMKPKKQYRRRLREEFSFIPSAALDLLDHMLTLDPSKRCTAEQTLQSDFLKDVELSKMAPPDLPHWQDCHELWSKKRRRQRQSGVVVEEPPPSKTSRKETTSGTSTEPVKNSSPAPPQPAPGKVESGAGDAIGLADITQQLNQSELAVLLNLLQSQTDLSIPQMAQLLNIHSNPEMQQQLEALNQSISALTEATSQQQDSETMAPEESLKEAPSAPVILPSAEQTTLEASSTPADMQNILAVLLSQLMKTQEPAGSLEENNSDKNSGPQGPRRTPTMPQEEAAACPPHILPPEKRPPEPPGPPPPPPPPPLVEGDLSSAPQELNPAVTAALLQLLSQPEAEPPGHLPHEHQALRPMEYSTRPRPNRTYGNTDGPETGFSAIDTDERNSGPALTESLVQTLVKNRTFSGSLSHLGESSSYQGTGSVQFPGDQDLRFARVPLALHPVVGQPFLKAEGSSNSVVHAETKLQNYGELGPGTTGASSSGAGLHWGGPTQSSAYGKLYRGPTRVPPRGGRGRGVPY
Sequence of CDK12 (O75909 whole entry partner): as the sequence (O75909 whole entry partner) above

DC50 (CDK12; [1]) [nM]	DC50 (CDK13; [2]) [nM]	DC50 (CDK12; read-out: CDK12 degradation Activity; DC50 classes; cell line not given) [nM]	DC50 (CDK13; read-out: CDK13 degradation Activity; DC50 classes; cell line not given) [nM]	Compound
100 to 500	100 to 500	–	–	CC(=O)N(c1ccc(-c2cnc(O[C@@H]3CCN(c4ccc5c(c4)C(=O)N(C4CCC(=O)NC4=O)C5=O)C3)nc2)cc1)[C@H]1CC[C@H](Nc2ncc3ccccc3n2)CC1 (stereo partly drawn) [Formula 109, N-(4-(2-(((3R)-1-(2-(2,6-dioxopiperidin-3-yl)-1,3-dioxoisoindolin-5-yl)pyrrolidin-3-yl)oxy)pyrimidin-5-yl)phenyl)-N-((1R,4R)-4-(quinazolin-2-ylamino)cyclohexyl)acetamide]
100 to 500	100 to 500	–	–	CC(=O)N(c1ccc(-c2ccc(N3C[C@H]4C[C@@H]3CN4CC(=O)N[C@H](C(=O)N3C[C@H](O)C[C@H]3C(=O)N[C@@H](C)c3ccc(-c4scnc4C)cc3)C(C)(C)C)nc2)cc1)[C@H]1CC[C@H](Nc2ncc3ccccc3n2)CC1 [Formula 143, (2S,4R)-1-((S)-3,3-dimethyl-2-(2-((1R,4R)-5-(5-(4-(N-((1R,4S)-4-(quinazolin-2-ylamino)cyclohexyl)acetamido)phenyl)pyridin-2-yl)-2,5-diazabicyclo[2.2.1]heptan-2-yl)acetamido)butanoyl)-4-hydroxy-N—((S)-1-(4-(4-methylthiazol-5-yl)phenyl)ethyl)pyrrolidine-2-carboxamide]
1000 to 3000	1000 to 3000	–	–	CC(=O)N(c1ccc(N2CCN(C3CN(c4ccc5c(c4)C(=O)N(C4CCC(=O)NC4=O)C5=O)C3)CC2)cc1)[C@H]1CC[C@H](Nc2ncc3ccccc3n2)CC1 (stereo partly drawn) [Formula 124, N-(4-(4-(1-(2-(2,6-dioxopiperidin-3-yl)-1,3-dioxoisoindolin-5-yl)azetidin-3-yl)piperazin-1-yl)phenyl)-N-((1R,4R)-4-(quinazolin-2-ylamino)cyclohexyl)acetamide]
1000 to 3000	3000 to 10000	–	–	CC(=O)N(c1ccc(N2CCN(C3CCN(c4ccc5c(c4)C(=O)N(C4CCC(=O)NC4=O)C5=O)C3)CC2)cc1)[C@H]1CC[C@H](Nc2ncc3ccccc3n2)CC1 (stereo partly drawn) [Formula 125, N-(4-(4-(1-(2-(2,6-dioxopiperidin-3-yl)-1,3-dioxoisoindolin-5-yl)pyrrolidin-3-yl)piperazin-1-yl)phenyl)-N-((1R,4R)-4-(quinazolin-2-ylamino)cyclohexyl)acetamide]
100 to 500	< 100	–	–	CC(=O)N(c1ccc(-c2cnc(N3CCN(c4cnn([C@H](C(=O)N5C[C@H](O)C[C@H]5C(=O)N[C@@H](C)c5ccc(-c6scnc6C)cc5)C(C)C)c4)CC3)nc2)cc1)[C@H]1CC[C@H](Nc2ncc3ccccc3n2)CC1 [Formula 154, (2S,4R)-4-hydroxy-1-((S)-3-methyl-2-(4-(4-(5-(4-(N-((1R,4R)-4-(quinazolin-2-ylamino)cyclohexyl)acetamido)phenyl)pyrimidin-2-yl)piperazin-1-yl)-1H-pyrazol-1-yl)butanoyl)-N—((S)-1-(4-(4-methylthiazol-5-yl)phenyl)ethyl)pyrrolidine-2-carboxamide]
500 to 1000	500 to 1000	–	–	CC(=O)N(c1ccc(-c2ccc(OCCOCC(=O)N[C@H](C(=O)N3C[C@H](O)C[C@H]3C(=O)N[C@@H](C)c3ccc(-c4scnc4C)cc3)C(C)(C)C)nc2)cc1)[C@H]1CC[C@H](Nc2ncc3ccccc3n2)CC1 [Formula 131, (2S,4R)-1-((S)-3,3-dimethyl-2-(2-(2-((5-(4-(N-((1R,4R)-4-(quinazolin-2-ylamino)cyclohexyl)acetamido)phenyl)pyridin-2-yl)oxy)ethoxy)acetamido)butanoyl)-4-hydroxy-N—((S)-1-(4-(4-methylthiazol-5-yl)phenyl)ethyl)pyrrolidine-2-carboxamide]
100 to 500	500 to 1000	–	–	CC(=O)N(c1ccc(N2CCN(C3CCN(c4ccc5c(c4)C(=O)N(C4CCC(=O)NC4=O)C5=O)CC3)CC2)cc1)[C@H]1CC[C@H](Nc2ncc3ccccc3n2)CC1 (stereo partly drawn) [Formula 123, N-(4-(4-(1-(2-(2,6-dioxopiperidin-3-yl)-1,3-dioxoisoindolin-5-yl)piperidin-4-yl)piperazin-1-yl)phenyl)-N-((1R,4R)-4-(quinazolin-2-ylamino)cyclohexyl)acetamide]
3000 to 10000	3000 to 10000	–	–	CC(=O)N(c1ccc(-c2cnc(N3CCN(C(=O)N[C@H](C(=O)N4C[C@H](O)C[C@H]4C(=O)N[C@@H](C)c4ccc(-c5scnc5C)cc4)C(C)(C)C)CC3)nc2)cc1)[C@H]1CC[C@H](Nc2ncc3ccccc3n2)CC1 [Formula 146, N—((S)-1-((2S,4R)-4-hydroxy-2-(((S)-1-(4-(4-methylthiazol-5-yl)phenyl)ethyl)carbamoyl)pyrrolidin-1-yl)-3,3-dimethyl-1-oxobutan-2-yl)-4-(5-(4-(N-((1R,4R)-4-(quinazolin-2-ylamino)cyclohexyl)acetamido)phenyl)pyrimidin-2-yl)piperazine-1-carboxamide]
500 to 1000	500 to 1000	–	–	CC(=O)N(c1ccc(-c2cnc(OC3CCN(CC(=O)N[C@H](C(=O)N4C[C@H](O)C[C@H]4C(=O)N[C@@H](C)c4ccc(-c5scnc5C)cc4)C(C)(C)C)CC3)nc2)cc1)[C@H]1CC[C@H](Nc2ncc3ccccc3n2)CC1 [Formula 136, (2S,4R)-1-((S)-3,3-dimethyl-2-(2-(4-((5-(4-(N-((1R,4R)-4-(quinazolin-2-ylamino)cyclohexyl)acetamido)phenyl)pyrimidin-2-yl)oxy)piperidin-1-yl)acetamido)butanoyl)-4-hydroxy-N—((S)-1-(4-(4-methylthiazol-5-yl)phenyl)ethyl)pyrrolidine-2-carboxamide]
3000 to 10000	3000 to 10000	–	–	CC(=O)N(c1ccc(-c2cnn(C3CCN(c4ccc5c(c4)C(=O)N(C4CCC(=O)NC4=O)C5=O)C3)c2)cc1)[C@H]1CC[C@H](Nc2ncc3ccccc3n2)CC1 (stereo partly drawn) [Formula 116, N-(4-(1-(1-(2-(2,6-dioxopiperidin-3-yl)-1,3-dioxoisoindolin-5-yl)pyrrolidin-3-yl)-1H-pyrazol-4-yl)phenyl)-N-((1R,4R)-4-(quinazolin-2-ylamino)cyclohexyl)acetamide]
1000 to 3000	1000 to 3000	–	–	CC(=O)N(c1ccc(-c2cnn(C3CCN(CC(=O)N[C@H](C(=O)N4C[C@H](O)C[C@H]4C(=O)N[C@@H](C)c4ccc(-c5scnc5C)cc4)C(C)(C)C)CC3)c2)cc1)[C@H]1CC[C@H](Nc2ncc3ccccc3n2)CC1 [Formula 139]
3000 to 10000	3000 to 10000	–	–	CC(=O)N(c1ccc(-c2ccc(C(=O)N[C@H]3CCC(=O)NC3=O)nc2)cc1)[C@H]1CC[C@H](Nc2ncc3ccccc3n2)CC1 [Formula 129, N—((S)-2,6-dioxopiperidin-3-yl)-5-(4-(N-((1R,4S)-4-(quinazolin-2-ylamino)cyclohexyl)acetamido)phenyl)pyridinecarboxamide]
–	–	500 to 1000	100 to 500	CC(=O)N(c1ccc(-c2ccc(N3CCN(Cc4cnn([C@H](C(=O)N5C[C@H](O)C[C@H]5C(=O)N[C@@H](C)c5ccc(-c6scnc6C)cc5)C(C)C)c4)CC3)nc2)cc1)C1CCC(Nc2ncc3ccccc3n2)CC1 (stereo partly drawn) [Formula 151, (2S,4R)-4-hydroxy-1-((S)-3-methyl-2-(4-((4-(5-(4-(N-((1R,4R)-4-(quinazolin-2-ylamino)cyclohexyl)acetamido)phenyl)pyridin-2-yl)piperazin-1-yl)methyl)-1H-pyrazol-1-yl)butanoyl)-N—((S)-1-(4-(4-methylthiazol-5-yl)phenyl)ethyl)pyrrolidine-2-carboxamide]
1000 to 3000	500 to 1000	–	–	CC(=O)N(c1ccc(N2CCN(C(=O)/C=C/c3ccc4c(c3)C(=O)N(C3CCC(=O)NC3=O)C4=O)CC2)cc1)[C@H]1CC[C@H](Nc2ncc3ccccc3n2)CC1 (stereo partly drawn) [Formula 118, N-(4-(4-((E)-3-(2-(2,6-dioxopiperidin-3-yl)-1,3-dioxoisoindolin-5-yl)acryloyl)piperazin-1-yl)phenyl)-N-((1R,4R)-4-(quinazolin-2-ylamino)cyclohexyl)acetamide]
3000 to 10000	3000 to 10000	–	–	CC(=O)N(c1ccc(-c2cnn(C3CN(c4ccc5c(c4)C(=O)N(C4CCC(=O)NC4=O)C5=O)C3)c2)cc1)[C@H]1CC[C@H](Nc2ncc3ccccc3n2)CC1 (stereo partly drawn) [Formula 113, N-(4-(1-(1-(2-(2,6-dioxopiperidin-3-yl)-1,3-dioxoisoindolin-5-yl)azetidin-3-yl)-1H-pyrazol-4-yl)phenyl)-N-((1R,4R)-4-(quinazolin-2-ylamino)cyclohexyl)acetamide]
100 to 500	100 to 500	–	–	CC(=O)N(c1ccc(-c2ccc(N3CCN(c4cnn([C@H](C(=O)N5C[C@H](O)C[C@H]5C(=O)N[C@@H](C)c5ccc(-c6scnc6C)cc5)C(C)C)c4)CC3)nc2)cc1)[C@H]1CC[C@H](Nc2ncc3ccccc3n2)CC1 [Formula 152, (2S,4R)-4-hydroxy-1-((S)-3-methyl-2-(4-(4-(5-(4-(N-((1R,4R)-4-(quinazolin-2-ylamino)cyclohexyl)acetamido)phenyl)pyridin-2-yl)piperazin-1-yl)-1H-pyrazol-1-yl)butanoyl)-N—((S)-1-(4-(4-methylthiazol-5-yl)phenyl)ethyl)pyrrolidine-2-carboxamide]
500 to 1000	100 to 500	–	–	CC(=O)N(c1ccc(-c2ccc(OCC3CCN(CC(=O)N[C@H](C(=O)N4C[C@H](O)C[C@H]4C(=O)N[C@@H](C)c4ccc(-c5scnc5C)cc4)C(C)(C)C)CC3)nc2)cc1)[C@H]1CC[C@H](Nc2ncc3ccccc3n2)CC1 [Formula 133, (2S,4R)-1-((S)-3,3-dimethyl-2-(2-(4-(((5-(4-(N-((1R,4R)-4-(quinazolin-2-ylamino)cyclohexyl)acetamido)phenyl)pyridin-2-yl)oxy)methyl)piperidin-1-yl)acetamido)butanoyl)-4-hydroxy-N—((S)-1-(4-(4-methylthiazol-5-yl)phenyl)ethyl)pyrrolidine-2-carboxamide]
